# System: hepatocellular carcinoma cell line Hep3B
# Experiment: Growth inhibition of Hep3B cells, 48 hr treatment, Hoechst 33342 nucleus count (GE InCell 2200)
# Format: cell-based
# Conditions: Homo sapiens, Table 5, ratio of number of tumor cells treated with 10 μM compound to non-treated cells
# Method: The potency of selected compounds was defined by the growth inhibition ability to the hepatocellular carcinoma cell line Hep3B. The Hep3B cells were treated with selected compounds for 48 hr under 37° C., 5% CO2, and 95% relative humidity.
# The number of treated cells was determined by GE InCell 2200 system, and treated cells were stained with Hoechst 33342 which can reveal the remained nucleus in culture plate. The proportion of survival cells then were calculated with the ratio of treated/non-treated cells. The growth inhibition/cytotoxic effect of selected compounds were evaluated by the following protocol of NCI-60 screening platform. The human tumor cell lines are plating on a 96 well plate in a fixed density 24 hr prior compound treatment. Compounds with multiple concentrations are then added into each well for further 48 hr incubation. Cell viability is assessed by MTS method and the potency of compound is represented by GI50 and LC50 calculated by MTS result.
# Herein, the “Ratio in 10 μM (%)” in the following Tables 1-6 refers to the ratio of the number of tumor cells treated with 10 μM of selected compounds to the number of non-treated tumer cells.
row,SMILES,viability at 10 µM [%]
1,"CCOc1ccccc1-c1nc(NC(=O)c2ccc([N+](=O)[O-])s2)sc1Oc1ccccc1 [Compound 5-5, N-(4-(2-ethoxyphenyl)-5-phenoxythiazol-2-yl)-5-nitrothiophene-2-carboxamide]",47
2,"CCOc1ccc(-c2nc(NC(=O)c3ccc([N+](=O)[O-])s3)sc2Oc2ccccc2)c(OCC)c1 [Compound 5-12, N-(4-(2,4-diethoxyphenyl)-5-phenoxythiazol-2-yl)-5-nitrothiophene-2-carboxamide]",46
3,"CCCOc1ccc(-c2nc(NC(=O)c3ccc([N+](=O)[O-])s3)sc2Oc2cccnc2)cc1 [Compound 5-13, 5-nitro-N-(4-(4-propoxyphenyl)-5-(pyridin-3-yloxy)thiazol-2-yl)thiophene-2-carboxamide]",53
4,"COCCOc1ccc(-c2nc(NC(=O)c3ccc([N+](=O)[O-])s3)sc2Oc2cccnc2)cc1 [Compound 5-15, N-(4-(4-(2-methoxyethoxy)phenyl)-5-(pyridin-3-yloxy)thiazol-2-yl)-5-nitrothiophene-2-carboxamide]",54
5,"COCCOc1ccc(-c2nc(NC(=O)c3ccc([N+](=O)[O-])s3)sc2Oc2ccccc2)cc1 [Compound 5-16, N-(4-(4-(2-methoxyethoxy)phenyl)-5-phenoxythiazol-2-yl)-5-nitrothiophene-2-carboxamide]",59
6,"CCCOc1ccc(-c2nc(NC(=O)c3ccc([N+](=O)[O-])s3)sc2Oc2ccccc2OCC)cc1 [Compound 5-21, N-(5-(2-ethoxyphenoxy)-4-(4-propoxyphenyl)thiazol-2-yl)-5-nitrothiophene-2-carboxamide]",28
7,"CCOc1ccc(-c2nc(NC(=O)c3ccc([N+](=O)[O-])s3)sc2Oc2ccc(C(F)(F)F)cc2)cc1 [Compound 5-25, N-(4-(4-ethoxyphenyl)-5-(4-(trifluoromethyl)phenoxy)thiazol-2-yl)-5-nitrothiophene-2-carboxamide]",32
8,"CCCOc1ccc(-c2nc(NC(=O)c3ccc([N+](=O)[O-])s3)sc2Oc2cc(C)c(Br)c(C)c2)cc1 [Compound 5-28, N-(5-(4-bromo-3,5-dimethylphenoxy)-4-(4-propoxyphenyl)thiazol-2-yl)-5-nitrothiophene-2-carboxamide]",32
9,"O=C(Nc1nc(-c2ccc(F)cc2)c(Oc2ccccc2C(F)(F)F)s1)c1ccc([N+](=O)[O-])s1 [Compound 5-31, N-(4-(4-fluorophenyl)-5-(2-(trifluoromethyl)phenoxy)thiazol-2-yl)-5-nitrothiophene-2-carboxamide]",48
10,"O=C(Nc1nc(-c2ccc(F)cc2)c(Oc2ccc(OC(F)(F)F)cc2)s1)c1ccc([N+](=O)[O-])s1 [Compound 5-33, N-(4-(4-fluorophenyl)-5-(4-(trifluoromethoxy)phenoxy)thiazol-2-yl)-5-nitrothiophene-2-carboxamide]",40
11,"COc1ccc(-c2nc(NC(=O)c3ccc([N+](=O)[O-])s3)sc2Oc2ccccc2)cc1 [Compound 5-34, N-(4-(4-methoxyphenyl)-5-phenoxythiazol-2-yl)-5-nitrothiophene-2-carboxamide]",54
12,"CNC(=O)c1ccc(-c2nc(NC(=O)c3ccc([N+](=O)[O-])s3)sc2Oc2ccc(F)cc2)cc1 [Compound 5-35, N-(5-(4-fluorophenoxy)-4-(4-(methylcarbamoyl)phenyl)thiazol-2-yl)-5-nitrothiophene-2-carboxamide]",68
13,"CCOc1cc(OCC)cc(-c2nc(NC(=O)c3ccc([N+](=O)[O-])s3)sc2Oc2ccccc2)c1 [Compound 5-36, N-(4-(3,5-diethoxyphenyl)-5-phenoxythiazol-2-yl)-5-nitrothiophene-2-carboxamide]",39
14,"CCCOc1ccc(-c2nc(NC(=O)c3ccc([N+](=O)[O-])s3)sc2Oc2ccc(F)cc2F)cc1 [Compound 5-37, N-(5-(2,4-difluorophenoxy)-4-(4-propoxyphenyl)thiazol-2-yl)-5-nitrothiophene-2-carboxamide]",38
15,"CCCOc1ccc(-c2nc(NC(=O)c3ccc([N+](=O)[O-])s3)sc2Oc2ccc(C#N)cc2OC)cc1 [Compound 5-40, N-(5-(4-cyano-2-methoxyphenoxy)-4-(4-propoxyphenyl)thiazol-2-yl)-5-nitrothiophene-2-carboxamide]",46
16,"CC(C)(C)C#Cc1ccc(-c2nc(NC(=O)c3ccc([N+](=O)[O-])s3)sc2Oc2ccccc2)s1 [Compound 5-41, N-(4-(5-(3,3-dimethylbut-1-yn-1-yl)thiophen-2-yl)-5-phenoxythiazol-2-yl)-5-nitrothiophene-2-carboxamide]",41
17,"O=C(Nc1nc(-c2ccc(Br)s2)c(Oc2ccccc2)s1)c1ccc([N+](=O)[O-])s1 [Compound 5-42, N-(4-(5-bromothiophen-2-yl)-5-phenoxythiazol-2-yl)-5-nitrothiophene-2-carboxamide]",55

row,SMILES,viability at 10 µM [%]
1,"CCCOc1ccc(-c2nc(NC(=O)c3ccc([N+](=O)[O-])s3)sc2Oc2ccc(Cl)c(Cl)c2)cc1 [Compound 5-44, N-(5-(3,4-dichlorophenoxy)-4-(4-propoxyphenyl)thiazol-2-yl)-5-nitrothiophene-2-carboxamide]",41
2,"CCCOc1ccc(-c2nc(NC(=O)c3ccc([N+](=O)[O-])s3)sc2Oc2ccc(F)cc2Cl)cc1 [Compound 5-45, N-(5-(2-chloro-4-fluorophenoxy)-4-(4-propoxyphenyl)thiazol-2-yl)-5-nitrothiophene-2-carboxamide]",28
3,"CN(C)CC#Cc1ccc(-c2nc(NC(=O)c3ccc([N+](=O)[O-])s3)sc2Oc2ccccc2)s1 [Compound 5-46, N-(4-(5-(3-(dimethylamino)prop-1-yn-1-yl)thiophen-2-yl)-5-phenoxythiazol-2-yl)-5-nitrothiophene-2-carboxamide]",53
4,"CCCOc1ccc(-c2nc(NC(=O)c3ccc([N+](=O)[O-])o3)sc2Oc2ccc(F)cc2)cc1 [Compound 5-49, N-(5-(4-fluorophenoxy)-4-(4-propoxyphenyl)thiazol-2-yl)-5-nitrofuran-2-carboxamide]",41
5,"CCCOc1ccc(-c2nc(NC(=O)c3ccc([N+](=O)[O-])s3)sc2Oc2cc(F)cc(F)c2)cc1 [Compound 5-50, N-(5-(3,5-difluorophenoxy)-4-(4-propoxyphenyl)thiazol-2-yl)-5-nitrothiophene-2-carboxamide]",42
6,"CCOc1ccc(-c2nc(NC(=O)c3ccc([N+](=O)[O-])s3)sc2Oc2ccccc2)cn1 [Compound 5-51, N-(4-(6-ethoxypyridin-3-yl)-5-phenoxythiazol-2-yl)-5-nitrothiophene-2-carboxamide]",43
7,"CCCOc1ccc(-c2nc(NC(=O)c3ccc([N+](=O)[O-])s3)sc2Oc2cccc3cccnc23)cc1 [Compound 5-52, 5-nitro-N-(4-(4-propoxyphenyl)-5-(quinolin-8-yloxy)thiazol-2-yl)thiophene-2-carboxamide]",41
8,"CCOc1ccc(-c2nc(NC(=O)c3ccc([N+](=O)[O-])s3)sc2Oc2ccccc2)c(F)c1 [Compound 5-53, N-(4-(4-ethoxy-2-fluorophenyl)-5-phenoxythiazol-2-yl)-5-nitrothiophene-2-carboxamide]",41
9,"CCOc1ccc(-c2nc(NC(=O)c3ccc([N+](=O)[O-])s3)sc2Oc2cccc(F)c2)cc1 [Compound 5-54, N-(4-(4-ethoxyphenyl)-5-(3-fluorophenoxy)thiazol-2-yl)-5-nitrothiophene-2-carboxamide]",35
10,"CCOc1ccc(-c2nc(NC(=O)c3ccc([N+](=O)[O-])s3)sc2Oc2ccc(F)cc2)cc1 [Compound 5-55, N-(4-(4-ethoxyphenyl)-5-(4-fluorophenoxy)thiazol-2-yl)-5-nitrothiophene-2-carboxamide]",47
11,"CCOc1ccc(-c2nc(NC(=O)c3ccc([N+](=O)[O-])s3)sc2Oc2ccccc2F)cc1 [Compound 5-57, N-(4-(4-ethoxyphenyl)-5-(2-fluorophenoxy)thiazol-2-yl)-5-nitrothiophene-2-carboxamide]",43
12,"CCCOc1ccc(-c2nc(NC(=O)c3ccc([N+](=O)[O-])s3)sc2Oc2ccccc2F)cc1 [Compound 5-58, N-(5-(2-fluorophenoxy)-4-(4-propoxyphenyl)thiazol-2-yl)-5-nitrothiophene-2-carboxamide]",43
13,"CCC(C)(C)c1ccc(-c2nc(NC(=O)c3ccc([N+](=O)[O-])s3)sc2Oc2ccccc2)cc1 [Compound 5-59, 5-nitro-N-(4-(4-(tert-pentyl)phenyl)-5-phenoxythiazol-2-yl)thiophene-2-carboxamide]",38
14,"O=C(Nc1nc(-c2ccc([N+](=O)[O-])cc2)c(Oc2ccccc2)s1)c1ccc([N+](=O)[O-])s1 [Compound 5-60, 5-nitro-N-(4-(4-nitrophenyl)-5-phenoxythiazol-2-yl)thiophene-2-carboxamide]",38
15,"COc1cc(-c2nc(NC(=O)c3ccc([N+](=O)[O-])s3)sc2Oc2ccccc2)cc(OC)c1OC [Compound 5-61, 5-nitro-N-(5-phenoxy-4-(3,4,5-trimethoxyphenyl)thiazol-2-yl)thiophene-2-carboxamide]",59
16,"CC(C)(C)c1ccc(Oc2sc(NC(=O)c3ccc([N+](=O)[O-])s3)nc2-c2ccc(F)cc2)cc1 [Compound 5-64, N-(5-(4-(tert-butyl)phenoxy)-4-(4-fluorophenyl)thiazol-2-yl)-5-nitrothiophene-2-carboxamide]",54

# From patent publication US11174253B2, “Compound and pharmaceutical composition containing the same” (ALPHALA CO., LTD., priority 2017, dated 2021)
